These results are taken from US6544727B1, “Methods and devices for the removal of psoralens from blood products” (Cerus Corporation, priority 1995, dated 2003).

“Also recorded” adds a separate entry of the source. Where two headings read alike, the source gives them in different places.

Series [1] has as its system R17 bacteriophage. The series can be described thus: R17 bacteriophage inactivation assay, varying compound concentration. Format: cell-based. The following applies: for R17 inactivation efficiency compared with AMT or 8-MOP (in words): varying concentration, Tables 6-9, FIGS. 6-10. On the procedure:
An r-17 bacteriophage assay was used in this example to predict pathogen inactivation efficiency and to determine nucleic acid binding of the photoreactive binding compounds of the present invention. In the r-17 assay, the bacteriophage was placed in a solution with each compound tested and was then irradiated. The ability of the phage to subsequently infect bacteria and inhibit their growth was measured. The bacteriophage was selected for its relatively accessible nucleic acid such that the culture growth inhibition would accurately reflect nucleic acid damage by the test compounds. The bacteriophage assay for nucleic acid binding to test compounds offers a safe and inexpensive procedure to identify compounds likely to display efficient pathogen inactivation.
The R17 was grown up in Hfr 3000 bacteria, approximate titer 5×10^11. (R17 and Hfr 3000 were obtained from American Tissue Culture Collection (ATCC), Washington, D.C.) The R17 phage stock was added to a solution of 15% fetal bovine serum in Dulbecco's Modified Eagles Medium (DMEM) to a final phage concentration of 10^9/mL. An aliquot (0.5 mL) was transferred to a 1.5 mL snap-top polyethylene tube. An aliquot (0.004-0.040 mL) of the test compound stock solution prepared in water, ethanol or dimethylsulfoxide at 0.80-8.0 mM was added to the tube. Compounds were tested at concentrations between 4 μM and 320 μM. […] The tubes were placed in a light device as described in EXAMPLE 1 and irradiated for between 1 and 10 minutes. Sterile 13 mL dilution tubes were prepared; each test compound required one tube with 0.4 mL of Luria broth (LB) and five tubes containing 0.5 mL of LB broth. To make the dilutions, a 0.100 mL aliquot of the irradiated solution of phage and test compound was added to the first dilution tube of 0.4 mL of media then 0.020 mL of this solution was added to the second tube of 0.5 mL medium (1:25). The second solution was then diluted serially (1:25) into the remaining tubes. To each diluted sample was added 0.050 mL of Hfr 3000 bacteria cultured overnight and 3 mL of molten LB top agar and the mixed materials were poured onto LB broth plates. After the top agar hardened, the plates were incubated at 37° C. overnight. The plaque forming units were then counted the following morning and the titer of the phage remaining after phototreatment was calculated based on the dilution factors.
The following controls were run: the “phage only” in which phage was not treated with test compound and not irradiated (listed as “starting titer” in the tables below); the “UV only” in which the phage was irradiated in the absence of test compound; and the “dark” control in which the phage/test compound solution was not irradiated before it was diluted and plated.

In series [2] the test system is Salmonella typhimurium tester strains. In words: Ames Salmonella dark mutagenicity test, overall assessment. It counts as cell-based. The settings on record: two-fold or greater increase in revertants above background and dose dependence. The method, then: A brief description for each procedure is given here. […] TA97a, TA98, TA1537 and TA1538 are frameshift tester strains. TA100 and TA102 are base-substitution tester strains.
This served as the background controls.
For all experiments, the pre-incubation procedure was used.

The test system of series [3] is Salmonella tester strain TA100. The method, then:
(§1) In this example the compounds of the present invention are tested for their dark mutagenicity using an Ames assay. The procedures used for the Salmonella mutagenicity test as described in detail by Maron and Ames were followed exactly. Maron, D. M. and B. N. Ames, Mutation Research 113: 173 ( 1983). A brief description for each procedure is given here. The tester strains TA97a, TA98, TA100, TA102, TA1537 and TA1538 were obtained from Dr. Ames. TA97a, TA98, TA1537 and TA1538 are frameshift tester strains. TA100 and TA102 are base-substitution tester strains. Upon receipt each strain was cultured under a variety of conditions to confirm the genotypes specific to the strains.
(§2) The first tests done with the strains were to determine the range of spontaneous reversion for each of the strains. With each mutagenicity experiment the spontaneous reversion of the tester strains to histidine independence was measured and expressed as the number of spontaneous revertants per plate. This served as the background controls.
(§3) For all experiments, the pre-incubation procedure was used. In this procedure one vial of each tester strain was thawed and 20 μL of this culture was added to 6 mL of Oxoid Nutrient Broth #2. This solution was allowed to shake for 10 hours at 37° C. In the pre-incubation procedure, 0.1 mL of this overnight culture was added to each of the required number of sterile test tubes. To half of the tubes 0.5 mL of a 10% S-9 solution containing Aroclor 1254 induced rat liver extract (Molecular Toxicology Inc., Annapolis, Md.), and MgCl2, KCl, glucose-6-phosphate, NADP, and sodium phosphate buffer (Sigma, St. Louis, Mo.) were added. To the other half of the tubes 0.5 mL of 0.2M sodium phospate buffer, pH 7.4, was used in place of the S-9 mixture (the—S9samples). Finally 0.1 mL of the test solution containing either 0, 0.1, 0.5, 1, 5, 10, 50, 100, 250, or 500 μg/mL of the test compound was added. The 0.7 mL mixture was vortexed and then pre-incubated while shaking for 20 minutes at 37° C. After shaking, 2 mL of molten top agar supplemented with histidine and biotin were added to the 0.7 mL mixture and immediately poured onto a minimal glucose agar plate (volume of base agar was 20 mL). The top agar was allowed 30 minutes to solidify and then the plates were inverted and incubated for 44 hours at 37° C. After incubation the number of revertant colonies on each plate were counted. […] (“n” represents the number of replicates performed for each data point.)

In series [4] the test system is Salmonella tester strain TA1538. The method, then: as §1, §2, §3
The subject of a further series is HIV-1. The settings on record: for HIV Log Kill: 1 minute irradiation, starting titer approximately 5 logs (Table 10).
In series [5] the test system is R17 bacteriophage. In words: R17 bacteriophage inactivation at constant concentration, varying doses of UV light. It counts as cell-based. The settings on record: 1.0-3.0 J/cm^2, FIGS. 11-17. On the procedure: Compounds of the present invention were also tested at a constant concentration for varying doses of UV light. Three sets of 1.5 mL tubes were prepared containing 0.6mL aliquots of R17 in DMEM (prepared as described above). The compound tested was added at the desired concentration and the samples were vortexed. The samples were then irradiated at intervals of 1.0 J/cm^2, until 3.0 J/cm^2 was reached. Between each 1.0 J/cm^2 interval, 100 μL was removed from each sample and placed in the first corresponding dilution tube, then five sequential dilutions were performed for each compound tested, at all 3 irradiation doses, as described above in this example.
Then 50 μL of Hfr 3000 bacteria was added to each tube, 3 mL of top agar was added and the tube contents were vortexed The contents of each tube was poured into its own LB plate and the plates were incubated overnight at 37° C. Plaques were counted by visual inspection the following morning.

The mark [6] stands for this setting: 8 μM, starting titer approx. 7.2 logs, 1 minute irradiation (Table 7).
The mark [7] stands for this setting: 16 μM, starting titer approx. 7.1 logs, 1 minute irradiation = 1.2 J/cm^2 (Table 8).
[8] abbreviates: 16 μM, starting titer approx. 7.2 logs, 1 minute irradiation (Table 7).
Where [9] appears, read: 32 μM, starting titer approx. 7.2 logs, 1 minute irradiation (Table 7).
Where [10] appears, read: Experiment 1, 32 μM compound, 1′ uva.
Setting [11] is: Experiment 1, 32 μM compound, 10′ uva.
Where [12] appears, read: Experiment 1, compound only (32 μM), no uva.
The mark [13] stands for this setting: Experiment 2, 3.2 μM compound, 1′ uva.
Setting [14] is: Experiment 2, 3.2 μM compound, 10′ uva.
The mark [15] stands for this setting: Experiment 2, compound only (3.2 μM), no uva.
The mark [16] stands for this setting: Experiment 3, 4 μM compound, 1′ uva.
Where [17] appears, read: Experiment 3, 8 μM compound, 1′ uva.
The mark [18] stands for this setting: Experiment 3, 16 μM compound, 1′ uva.
Where [19] appears, read: Experiment 3, compound only (16 μM), no uva.

Protocol for HIV-1: As in the R17 assay, small aliquots of the compounds listed in TABLES 10 and 11, below, at the concentrations listed in the table, were added to stock HIV-1 to a total of 0.5 mL. The stock HIV (10^5−10^7 plaque forming units/mL) was in DMEM15% FBS. […] Controls included HIV-1 stock only, HIV-1 plus UVA only, and HIV-1 plus the highest concentration of each psoralen tested, with no UVA. Post irradiation, all samples were store frozen at −70° C. until assayed for infectivity by a microtiter plaque assay. Aliquots for measurement of residual HIV infectivity in the samples treated with a compound of the present invention were withdrawn and cultured.
Residual HIV infectivity was assayed using an MT-2 infectivity assay. […] The assay medium was 85% DMEM (with a high glucose concentration) containing 100 μg of streptomycin, 100 U of penicillin, 50 μg of gentamicin, and 1 μg of amphotericin B per mL, 15% FBS and 2 μg of Polybrene (Sigma Chemical Co., St. Louis, Mo.) per mL. Test and control samples from the inactivation procedure were diluted in 50% assay medium and 50% normal human pooled plasma The samples were serially diluted directly in 96-well plates (Corning Glass Works, Corning, N.Y.). The plates were mixed on an oscillatory shaker for 30 seconds and incubated at 37° C. in a 5% CO2 atmosphere for 1 to 18 hours. […] After an additional 1 hour of incubation at 37° C. in 5% CO2, 0.075 mL of assay medium containing 1.6% SeaPlaque agarose (FMC Bioproducts, Rockland, Me.) and prewarmed to 38.5° C. was added to each well. The plates were kept at 37° C. for a few minutes until several plates had accumulated and then centrifuged in plate carriers at 600×g for 20 minutes in a centrifuge precooled to 10° C. In the centrifuge, cell monolayers formed prior to gelling of the agarose layer. The plates were incubated for 5 days at 37° C. in 5% CO2 and stained by the addition of 0.05 mL of 50 μg/mL propidium iodide (Sigma Chemical Co.) in phosphate-buffered saline (pH 7.4) to each well. After 24 to 48 hours, the red fluorescence-stained microplaques were visualized by placing the plates on an 8,000 μW/cm^2304 nm UV light box (Fotodyne, Inc., New Berlin, Wis.). The plaques were counted at a magnification of x20 to x25 through a stereomicroscope.

Consider `Cc1oc2c(C)c3oc(=O)cc(C)c3cc2c1CCN` [Compound 3, 4′-(2-aminoethyl)-4,5′,8-trimethylpsoralen], for which the “R17 Log Kill” value with R17 bacteriophage [1] (8 μM, starting titer approx. 7.1 logs, 1 minute irradiation = 1.2 J/cm^2 (Table 8)) is listed as 5.6 log; in the series with R17 bacteriophage [1] (setting [6]) it was above 6.2 log; with R17 bacteriophage [1] (setting [7]) it was above 6.1 log; in the series with R17 bacteriophage [1] (setting [8]), above 6.2 log; in the series on R17 bacteriophage [1] (setting [9]), above 6.2 log. Further, the “R17 inactivation efficiency compared with AMT or 8-MOP (in words)” value in the series on R17 bacteriophage [1] is on record as “significantly higher inactivation efficiency than does AMT”. Further, in series [2], the “mutagenic response in the Ames assay (in words)” value (from here on “mutagenic response”) was “no mutagenicity”. Further, the “revertant colonies per plate” value in series [3] (TA100 + S9, 5 μg/plate) is recorded as −19; in series [3] (TA100 + S9, 10 μg/plate) it was 8; in series [3] (TA100 − S9, 5 μg/plate), 47; in series [3] (TA100 − S9, 10 μg/plate), 47; in series [4] (TA1538 + S9, 5 μg/plate) it was 1; in series [4] (TA1538 + S9, 10 μg/plate), 9. Besides, the “revertant colonies per plate” value is recorded as 0 in series [4] (TA1538 − S9, 5 μg/plate) and −6 in series [4] (TA1538 − S9, 10 μg/plate). In addition, the “HIV Log Kill” value in the series with HIV-1 (32 μM) was 2.7 log; in the series with HIV-1 (64 μM), above 3.8 log. Also, the “HIV inactivation compared with AMT (in words)” value in the series with HIV-1 (cell-free HIV, 64 μM of compound or higher for compounds 2 and 3) is on record as “significantly more active than AMT”.
For `Cc1oc2c(C)c3oc(=O)cc(C)c3cc2c1CNCCN` [Compound 1, 4′-(4-amino-2-aza)butyl-4,5′,8-trimethylpsoralen], the results for the “R17 Log Kill” value in the series on R17 bacteriophage [1] (setting [6]), in the series on R17 bacteriophage [1] (setting [8]) and in the series on R17 bacteriophage [1] (setting [9]) were 1.7 log, 2.8 log and 5.3 log, respectively. Moreover, the “R17 log kill (32 μM)” value in the series with R17 bacteriophage [1] (32 μM, starting titer approx. 7.5 logs, 1 minute irradiation) is on record as above 6.6 log. Further, the “Log Titer” value was below 1 with R17 bacteriophage [1] (setting [10]); below 1 with R17 bacteriophage [1] (setting [11]); 7.6 with R17 bacteriophage [1] (setting [12]); 6.9 with R17 bacteriophage [1] (setting [13]); 6.1 in the series with R17 bacteriophage [1] (setting [14]); 7.7 in the series with R17 bacteriophage [1] (setting [15]). In addition, the “Log Titer” value is given as 6.3 with R17 bacteriophage [1] (setting [16]), 5.6 in the series on R17 bacteriophage [1] (setting [17]), 3.9 in the series on R17 bacteriophage [1] (setting [18]) and 7.3 in the series on R17 bacteriophage [1] (setting [19]). Also, the “Logs Killed” value with R17 bacteriophage [1] (setting [10]) is above 6.7 logs; in the series with R17 bacteriophage [1] (setting [11]) it was above 6.7 logs; in the series with R17 bacteriophage [1] (setting [12]) it was 0.1 logs; in the series on R17 bacteriophage [1] (setting [13]) it was 0.9 logs; with R17 bacteriophage [1] (setting [14]), 1.7 logs; in the series on R17 bacteriophage [1] (setting [15]) it was 0.1 logs. Also, the “Logs Killed” value in the series with R17 bacteriophage [1] (setting [16]) stood at 1.0 logs; in the series with R17 bacteriophage [1] (setting [17]) it was 1.7 logs; with R17 bacteriophage [1] (setting [18]) it was 3.4 logs; in the series on R17 bacteriophage [1] (setting [19]) it was 0 logs. Moreover, in the series on R17 bacteriophage [1], the “R17 inactivation efficiency compared with AMT or 8-MOP (in words)” value was “much higher R17 inactivation efficiency than does 8-MOP”. Also, in series [2], the “mutagenic response” value is recorded as “weak frameshift mutagen in TA1538 at 5 μg/plate in the presence of S9; also recorded: displayed mutation in the TA100 strain, but only in the absence of S9”. Further, the “revertant colonies per plate” value is recorded as −24 in series [3] (TA100 + S9, 5 μg/plate); −22 in series [3] (TA100 + S9, 10 μg/plate); 292 in series [3] (TA100 − S9, 5 μg/plate); 337 in series [3] (TA100 − S9, 10 μg/plate); 21 in series [4] (TA1538 + S9, 5 μg/plate); 22 in series [4] (TA1538 + S9, 10 μg/plate). Besides, the “revertant colonies per plate” value in series [4] (TA1538 − S9, 5 μg/plate) is 10; in series [4] (TA1538 − S9, 10 μg/plate) it was 12. In addition, the “HIV Log Kill” value in the series on HIV-1 (64 μM) was 2.1 log.
Take `Cc1oc2c(C)c3oc(=O)cc(C)c3cc2c1COCCCN` [Compound 4, 4′-(5-amino-2-oxa)pentyl-4,5′,8-trimethylpsoralen]: the “R17 Log Kill” value in the series on R17 bacteriophage [1] (setting [7]) was 2.3 log; in the series on R17 bacteriophage [1] (32 μM, starting titer approx. 7.1 logs, 1 minute irradiation = 1.2 J/cm^2 (Table 8)), 4.3 log; in the series on R17 bacteriophage [1] (64 μM, starting titer approx. 7.1 logs, 1 minute irradiation = 1.2 J/cm^2 (Table 8)) it was above 6.1 log. For the same compound, the “mutagenic response” value in series [2] is listed as “no mutagenicity”. The “revertant colonies per plate” value is −10 in series [3] (TA100 + S9, 5 μg/plate); −3 in series [3] (TA100 + S9, 10 μg/plate); −41 in series [3] (TA100 − S9, 5 μg/plate); 3 in series [3] (TA100 − S9, 10 μg/plate); 7 in series [4] (TA1538 + S9, 5 μg/plate); −2 in series [4] (TA1538 + S9, 10 μg/plate). For the same compound, the “revertant colonies per plate” value in series [4] (TA1538 − S9, 5 μg/plate) is recorded as −2; in series [4] (TA1538 − S9, 10 μg/plate), −2. Besides, the figures for the “HIV Log Kill” value in the series with HIV-1 (32 μM) and with HIV-1 (64 μM) were 2.2 log and above 3.6 log, respectively.
Regarding `Cc1oc2c(C)c3oc(=O)cc(C)c3cc2c1CNCCCNCCCCNCCCN` [Compound 15, 4′-(14-amino-2,6,11-triaza)tetradecyl-4,5′,8-trimethylpsoralen], the “R17 inactivation efficiency compared with AMT (in words)” value in the series on R17 bacteriophage [5] is “more efficient at inactivating R17 than was AMT”.
